Test results taken from patent US20250144107A1, “USE OF A PIKFYVE INHIBITOR IN COMBINATION WITH IMMUNOTHERAPY” (The Regents of the University of Michigan, priority 2023, published 2025).

What was measured:
[1] = Overall comparison across preclinical models; type: in vivo; settings: in many of models; dose of apilimod higher than ESK981
Description: This could be, at least partially, explained by the reported instability of apilimod See, e.g., Ikonomov, O. C. et al., Toxicol. Appl. Pharmacol. 2019; 383:114771.

[2] = tested on: cDCs; assay: Phenotype of cultured cDCs (flow cytometry, western blot); type: cell-based, mice
Protocol: FIG. 13G (Left) is a line graph of the relative median fluorescent intensity of the surface MHC-I on DMSO or apilimod-treated cDCs treated for 20 hours after 6 days of culture. FIG. 13G (Right) is a box and whisker plot of the surface MHC-I on DMSO or apilimod-treated cDCs treated for 20 hours after 6 days of culture
FIG. 13H a western blot showing the total vinculin, loading control, and total MHC-I in DMSO or apilimod-treated, 20 hours, cDC lysates after 6 days of culture.
FIG. 13K (Left) is a line graph of the relative median fluorescent intensity of the surface MHC-II on DMSO or apilimod-treated, 20 hours, cDCs treated after 6 days of culture. FIG. 13K (Right) is a box and whisker plot of the surface MHC-II on DMSO or apilimod-treated, 20 hours, cDCs treated after 6 days of culture.
FIG. 13L a western blot showing the total vinculin, loading control, and total MHC-II in DMSO or apilimod-treated, 20 hours, cDC lysates after 6 days of culture.
FIG. 13N a western blot showing the total histone H3, loading control, and total CD80 and CD86 in apilimod-treated, 20 hours, PIKfyve WT vs. KO cDC lysates after 6 days of culture.
FIG. 13P is a series of six scatter plots of surface CD80 and CD86 on DMSO or apilimod-treated cDCs, with or without 20 hours of PolyI:C, 50 μg/ml, or lipopolysaccharide (LPS), 50 ng/ml, treatment after 6 days of culture.
FIG. 13R a western blot showing the total vinculin, loading control, and total CD40 in DMSO or apilimod-treated, 20 hours, cDC lysates treated with or without additional LPS, 50 ng/ml, after 6 days of culture day 6.
FIG. 19B is a line graph of representative density plot of median fluorescent intensity of surface XCR1 in DMSO or apilimod-treated, 20 hours, cDCs after 6 days of culture.
FIG. 26G is a line graph of the relative median fluorescent intensity of the surface MHC-I, H2-kb, H2-kd, on DMSO or apilimod-treated cDCs with or without PolyI:C, 50 μg/ml or LPS, 50 ng/ml, treatment, 20 hours, after 6 days of culture.
FIG. 26H is a line graph of the relative median fluorescent intensity of the surface MHC-II, MHC-IA-IE, on DMSO or apilimod-treated cDCs with or without PolyI:C, 50 μg/ml or LPS, 50 ng/ml, treatment, 20 hours, after 6 days of culture.

[3] = tested on: cDCs co-cultured with OT-I and OT-II cells; assay: cDC antigen presentation and OT-I/OT-II co-culture; type: cell-based, mice
Protocol: FIG. 13T is a box and whisker plot of the percentage of IFNγ^+ OT-I cells after 72 hours of co-culture with DMSO or apilimod pre-treated cDCs with or without sOVA, 10 μg/ml.
FIG. 13V is a box and whisker plot of the percentage of IFNγ^+ OT-II cells after 72 hours of co-culture with DMSO or apilimod pre-treated cDCs with or without sOVA, 10 μg/ml.
FIG. 19G is a line graph (Left) and box and whisker plot (Right) of relative median fluorescent intensity of surface H-2kb-SIINFEKL in DMSO or apilimod-treated cDCs with or without 12 hours of pOVA, 100 ng/ml, treatment.
FIG. 19H is a scatter plot (Left) and box and whisker plot (Right) of relative median fluorescent intensity of percent H2kb-SIINFEKL^+ cells in DMSO or apilimod-treated cDCs with or without 12 hours of pOVA, 100 ng/ml, treatment.
FIG. 20D is a scatter plot (Left) and box and whisker plot (Right) of percentage of IFNγ^+ OT-I cells after 48 hours of co-culture with DMSO or apilimod pre-treated cDCs with or without pOVA, 100 ng/ml.
FIG. 20E is a scatter plot (Left) and box and whisker plot (Right) of percentage of granzyme B^+ OT-I cells after 48 hours of co-culture with DMSO or apilimod pre-treated cDCs with or without pOVA, 100 ng/ml.
FIG. 20H is a box and whisker plot of the percent of Ki67^+ OT-I cells after 72 hours of co-culture with DMSO or apilimod pre-treated cDCs with or without sOVA, 10 μg/ml.
FIG. 20I is a box and whisker plot of the percent of Ki67^+ OT-II cells after 72 hours of co-culture with DMSO or apilimod pre-treated cDCs with or without sOVA, 10 μg/ml.

[4] = tested on: immune cells enriched from spleens; assay: Immune cells from spleens of non-tumor-bearing mice; type: in vivo
Protocol: FIG. 13A is a box and whisker plot of relative median fluorescent intensity of surface XCR1 in CD45^+ cells of splenic DCs in PIKfyve inhibitor-treated non-tumor-bearing mice.
FIG. 13B is a box and whisker plot of cDC1 cells from spleens of mice treated with vehicle or apilimod, 30 mg/kg daily, after 5 days of treatment.
FIG. 18A is a series of nine scatter plots of the gating strategy for CD69^+ effector, naïve, terminally differentiated, resident memory, central memory, and exhausted CD8^+ T cells from spleens of non-tumor-bearing mice treated with vehicle or apilimod, 30 mg/kg daily, after 5 days of treatment.
FIG. 18H is a series of nine scatter plots of the gating strategy for FIG. 13A-B and FIG. 18I for myeloid cells and cDCs.

[5] = 30 mg/kg daily, 5 days, vs vehicle

Cc1cccc(/C=N/Nc2cc(N3CCOCC3)nc(OCCc3ccccn3)n2)c1 [apilimod, N-[(E)-(3-methylphenyl)methylideneamino]-6-morpholin-4-yl-2-(2-pyridin-2-ylethoxy)pyrimidin-4-amine]
efficacy relative to ESK981 [1]: weaker than ESK981 | surface and total protein expression of MHC-II ([2]; 20 hours): increased | MHC-I and MHC-II expression ([2]; DCs in vitro, each agent): stimulated | CD80 and CD86 expression ([2]; WT DCs, in a dose-dependent manner): induced | total expression of CD40 ([2]; added to LPS treatment, vs DMSO): increased | CD80+CD86+ cDCs ([2]; alone and in combination with PolyI:C and LPS): increase | MHC-I and MHC-II expression ([2]; apilimod added to PolyI:C or LPS): further enhanced | surface and total protein expression of MHC-I ([2]; cDCs from WT mice, 20 hours): increased | total surface expression of XCR1 ([2]; cultured cDCs, 20 hours, vs DMSO): increase | total intensity and percentage of cells with H2-kb-SIINFEKL surface expression ([3]; pOVA, vs DMSO): greater | T cell activation (IFNγ+ and granzyme B+ OT-I cells) ([3]; peptide antigen-loaded cDCs, vs DMSO): increase | percentages of Ki67+ and IFNγ+ OT-I cells ([3]; sOVA-loaded cDCs, vs DMSO): increases | percentages of Ki67+ and IFNγ+ OT-II cells ([3]; sOVA-loaded cDCs, vs control): higher percentages | percentage of terminally differentiated, memory or exhausted CD8+ T cells [4, 5]: no changes | proportions of CD69+CD8+ T cells [4, 5]: increased | total surface expression of CD11c, F4/80, or CD11b [4, 5]: no change | total surface expression of XCR1 [4, 5]: increase | relative percentage of cDC1s versus cDC2 cells ([4]; within the cDC subset): increase
